From US4033992A, “Novel compounds of the 11-deoxyprostaglandin E3, R3α, and F3β series” (priority 1975, dated 1977)

Key:
[1] = tested on: gastric acid secretion; experiment: Gastric acid secretion inhibitory action, modified "Shay rat" procedure; assay type: in vivo, rats (male, CFE strain); conditions: 3 hours
Experimental: The novel compounds of the present invention (and those wherein R2 is hydroxy when X is keto and Y is ethylene) are effective inhibitors of gastric acid secretion and of ulcer development in experimental animals, and thus are potentially valuable as agents for the control of gastric acid secretion and of gastric erosion and as anti-ulcer agents. Gastric acid secretion inhibitory action was measured by the "Shay rat" procedure with some modifications as follows.
The rats (male, CFE strain) were starved for 48 hours (water was given ad libitum) to permit evacuation of stomach contents. On the morning of the experiment, under ether anesthesia, the abdominal region was shaved and a midline incision (1-1 1/2") was made with a scapel. With the help of a closed curved hemostate the duodenum was picked up. Upon getting the duodenum into view, fingers were used to pull the stomach through the opening, the stomach was then gently manipulated with fingers to rid the stomach of air and residual matter which were pushed through the pylorus. Two-5 inch sutures were drawn under the pyloric-duodenal juncture. A ligature, at the juncture, was formed with one of the threads. The second ligature was also formed but not tightened.
The test compound or the vehicle, usually 1 ml./100 g. body weight, were injected into the duodenum as close as possible to the first ligature. […]
The abdominal cavity was exposed by cutting with scissors and the esophagus close to the stomach was clamped off with a hemostat, the stomach was removed by cutting above the hemostat (the esophagus was cut) and between the two sutures. […] The supernatant was collected, volume measured and recorded, 2 drops of a phenolphthalein indicator (1% in 95% ethanol) were added and the solution was titrated with 0.02 N NaOH (or with 0.04 N NaOH when large volumes of stomach contents were encountered) to pH 8.4 (because of usual coloring of the stomach contents, phenolphthalein was only used to permit visual indication that the end point was near) and the amount of acid present was calculated. […]

[2] = tested on: bronchospasms elicited by intravenous injections of 5-hydroxytryptamine, histamine, or acetylchlorine; experiment: Bronchodilator activity by the Konzett procedure; assay type: in vivo, guinea pigs; conditions: Cavia porcellus, three logarithmic cumulative intravenous doses
Experimental: Bronchodilator activity was determined in guinea pigs against bronchospasms elicited by intravenous injections of 5-hydroxytryptamine, histamine, or acetylchlorine by the Konzett procedure. [See J. Lulling, P. Lievens, F. El Sayed and J. Prignot, Arzneimittel-Forschung, 18,995 (1968).] This activity is expressed as an ED50 determined from the results obtained with three logarithmic cumulative intravenous doses.

[3] = tested on: ulcers; experiment: Indomethacin-induced ulcer assay (anti-ulcer); assay type: in vivo, Rats; conditions: Indomethacin 20 mg./kg. s.c., score 0-4
Experimental: Another assay useful for determining potential anti-ulcer agents is carried out in the following manner.
Rats were starved for 48 hours (water was given as libitum). Indomethacin (20 mg./kg. of body weight) was administered by the subcutaneous route and one-half the dose of the test compound was administered by gavage at the same time. After three hours, the second half of the test compound was administered also by gavage. Five hours after the administration of Indomethacin the animals were decapitated and the stomachs removed. The stomachs were washed with distilled water, blotted on gauze, cut along the larger curvature, and the contents rinsed with distilled water. The stomachs were spread out, pinned on a cork and visualized under magnifying glass for ulcers. The critera for scoring of ulcers was as previously reported. [Abdel-Galil et al. Brit. J. Pharmac. Chemotherapy 33:1-14 (1968)].
1-- Petechial hemmorrhage or pin point ulcers
3-- Many ulcers, a few large
4-- Many ulcers, mainly large
Control animals treated with Indomethacin but not test compound consistently give scores of about 2.5-3.5. Control animals treated with neither Indomethacin nor test compound give scores of about 0.5-0.8. Compounds diminishing the control ulcer score by 0.5 unit or more are considered to be active

[4] = intraduodenal dose 50 mg./kg. of body weight

| SMILES | Percent Inhibition (gastric acid secretion) ([1]; intraduodenal dose 12.5 mg./kg. of body weight) | Percent Inhibition (gastric acid secretion) [1, 4] | ED50 ([2]; spasmogenic agent 5-hydroxytryptamine) | ED50 ([2]; spasmogenic agent acetylcholine) | ED50 ([2]; spasmogenic agent histamine) | Score, Treated Animals (ulcer score) ([3]; total oral dose 12.5 mg./kg. of body weight, Controls 2.7) | Score, Treated Animals (ulcer score) ([3]; total oral dose 50 mg./kg. of body weight, Controls 2.8) |
| --- | --- | --- | --- | --- | --- | --- | --- |
| CCCCC[C@H](O)/C=C/[C@H]1CCC(=O)[C@@H]1C/C=C\CCCC(=O)O [l-11-deoxyprostaglandin E2, 11-deoxyprostaglandin E2] | 42% | 97% | 5.2 µg/kg | 10 µg/kg | 5.2 µg/kg | 1.2 |  |
| CCCCC[C@H](O)/C=C/[C@H]1CC[C@H](O)[C@@H]1C/C=C\CCCC(=O)O [l-11-deoxyprostaglandin F2 α, 11-deoxyprostaglandin F2 α] |  | 98% |  |  |  |  | 1.3 |
